Reference: patent US10844049B2, “GLP-1R agonists and uses thereof” (QILU REGOR THERAPEUTICS INC., priority 2018, dated 2020)

Molecular target: GLP1R (Homo sapiens, UniProt P43220)
Experiment: GLP1R cAMP HTRF assay, HEK293/GLP-1R/CRE/Luc (HEK293T cells)
Assay type: cell-based
Details: read-out: EC50
Procedure, shortened: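 cAMP accumulation via HTRF after 30 min, 37 °C exposure of 1000 receptor-expressing cells/well to compound (0.5% DMSO final) in IBMX (500 μM)/0.1% BSA DPBS.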

Sequence of GLP1R (P43220 24-463): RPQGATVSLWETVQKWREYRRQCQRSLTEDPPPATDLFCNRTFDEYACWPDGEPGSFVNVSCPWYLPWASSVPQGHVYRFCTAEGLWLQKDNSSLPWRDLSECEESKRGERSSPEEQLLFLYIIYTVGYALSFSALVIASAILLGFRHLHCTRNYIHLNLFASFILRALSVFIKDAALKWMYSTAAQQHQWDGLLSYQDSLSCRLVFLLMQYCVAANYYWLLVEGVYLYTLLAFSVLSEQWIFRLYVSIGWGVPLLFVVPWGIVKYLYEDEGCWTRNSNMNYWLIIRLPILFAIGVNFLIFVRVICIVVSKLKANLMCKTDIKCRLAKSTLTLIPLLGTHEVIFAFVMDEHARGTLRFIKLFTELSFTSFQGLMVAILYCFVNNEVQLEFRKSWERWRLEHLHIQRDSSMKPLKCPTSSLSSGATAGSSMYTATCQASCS

Structure (SMILES) | EC50
O=C(O)c1ccc2nc(CN3CC=C(c4ccnc(NCc5ccc(Cl)cc5F)c4)CC3)n(C[C@@H]3CCO3)c2c1 [Compound 130, (S)-2-((2′-((4-chloro-2-fluorobenzyl)amino)-3,6-dihydro-[4,4′-bipyridin]-1(2H)-yl)methyl)-1-(oxetan-2-ylmethyl)-1H-benzo[d]imidazole-6-carboxylic add] | ≤ 1000 nM
O=C(O)c1ccc2nc(CN3CC=C(c4ccc5c(n4)N(Cc4ccc(Cl)cc4F)CCCO5)CC3)n(C[C@@H]3CCO3)c2c1 [Compound 59, (S)-2-((4-(5-(4-chloro-2-fluorobenzyl)-2,3,4,5-tetrahydropyrido[3,2-b][1,4]oxazepin-7-yl)-3,6-dihydropyridin-1(2H)-yl)methyl)-1-(oxetan-2-ylmethyl)-1H-benzo[d]imidazole-6-carboxylic add] | > 1000 nM
O=C(O)c1ccc2nc(CN3CCN(c4cc(OCc5ccc(Cl)cc5F)c(F)cc4F)CC3)n(C[C@@H]3CCO3)c2c1 [Compound 188] | ≤ 150 nM
N#Cc1ccc(COc2cccc(N3CCC(Cc4nc5ccc(C(=O)O)nc5n4C[C@@H]4CCO4)CC3)n2)nc1 [Compound 231, (S)-2-((l-(6-((5-cyanopyridin-2-yl)methoxy)pyridin-2-yl)piperidin-4-yl)methyl)-3-(oxetan-2-ylmethyl)-3H-imidazo[4,5-b]pyridine-5-carboxylic acid] | ≤ 150 nM
O=C(O)c1ccc2nc(CN3CCN(c4ccc(=O)n(Cc5ccc(Cl)cc5F)n4)CC3)n(C[C@@H]3CCO3)c2c1 [Compound 7, (S)-2-((4-(1-(4-chloro-2-fluorobenzyl)-6-oxo-1,6-dihydropyridazin-3-yl)piperazin-1-yl)methyl)-1-(oxetan-2-ylmethyl)-1 h-benzo[d]imidazole-6-carboxylic acid] | > 1000 nM
N#Cc1ccc(COc2cccc(N3CCC(Cc4nc5ccc(C(=O)O)c(F)c5n4C[C@@H]4CCO4)CC3)n2)nc1 [Compound 233, (S)-2-((l-(6-((5-cyanopyridin-2-yl)methoxy)pyridin-2-yl)piperidin-4-yl)methyl)-7-fluoro-1-(oxetan-2-ylmethyl)-1H-benzo[d]imidazole-6-carboxylic add] | ≤ 150 nM
O=C(O)c1ccc2nc(CN3CCN(c4ccc(F)c(OCc5ccc(C#CC6CC6)cc5F)c4)CC3)n(C[C@@H]3CCO3)c2c1 [Compound 196, (S)-2-((4-(3-((4-(cyclopropylethynyl)-2-fluorobenzyl)oxy)-4-fluorophenyl)piperazin-1-yl)methyl)-1-(oxetan-2-ylmethyl)-1H-benzo[d]imidazole-6-carboxylic add] | ≤ 150 nM
N#Cc1ccc(COc2cccc(C3CCN(Cc4nc5ccc(C(=O)O)cc5n4C[C@@H]4CCO4)CC3)c2)c(F)c1 [Compound 191, (S)-2-((4-(3-((4-cyano-2-fluorobenzyl)oxy)phenyl)piperidin-1-yl)methyl)-1-(oxetan-2-ylmethyl)-1H-benzo[d]imidazole-6-carboxylic acid] | ≤ 150 nM
O=C(O)c1ccc2nc(CN3CC=C(c4cncc(OCc5ccc(Cl)cc5F)c4)CC3)n(C[C@@H]3CCO3)c2c1 [Compound 32, (S)-2-((5-((4-chloro-2-fluorobenzyl)oxy)-3′,6′-dihydro-[3H′-bipyridin]-1′(2′H)-yl)methyl)-1-(oxetan-2-ylmethyl)-1 h-benzo[d]imidazole-6-carboxylic acid] | ≤ 1000 nM
N#CC1(c2cccc(OCc3ccc(Cl)cc3F)n2)CCN(Cc2nc3ccc(C(=O)O)cc3n2C[C@@H]2CCO2)CC1 [Compound 66, (S)-2-((4-(6-((4-chloro-2-fluorobenzyl)oxy)pyridin-2-yl)-4-cyanopiperidin-1-yl)methyl)-1-(oxetan-2-ylmethyl)-1H-benzo[d]imidazole-6-carboxylic acid] | > 1000 nM
N#Cc1ccc(CNc2nc(C3=CCN(Cc4nc5ccc(C(=O)O)cc5n4C[C@@H]4CCO4)CC3)c(F)cc2F)c(F)c1 [Compound 217, (S)-2-((6-((4-cyano-2-fluorobenzyl)amino)-3,5-difluoro-3′,6′-dihydro-[2,4′-bipyridin]-1′(2′H)-yl)methyl)-1-(oxetan-2-ylmethyl)-1H-benzo[d]imidazole-6-carboxylic add] | ≤ 15 nM
O=C(O)c1ccc2nc(CN3CCN(c4cccc(OCc5ccc(Cl)cc5F)n4)C(=O)C3)n(C[C@@H]3CCO3)c2c1 [Compound 55, (S)-2-((4-(6-((4-chloro-2-fluorobenzyl)oxy)pyridin-2-yl)-3-oxopiperazin-1-yl)methyl)-1-(oxetan-2-ylmethyl)-1H-benzo[d]imidazole-6-carboxylic acid] | ≤ 15 nM

Other lines, results leading:

EC50 | Structure (SMILES)
≤ 15 nM | O=C(O)c1ccc2nc(CN3CC=C(c4cccc(OCc5cccnc5Cl)n4)CC3)n(C[C@@H]3CCO3)c2c1 [Compound 163]
≤ 1000 nM | O=C(O)c1ccc2nc(CN3CC=C(c4cccc(OCc5cnccn5)n4)CC3)n(C[C@@H]3CCO3)c2c1 [Compound 165, (S)-1-(oxetan-2-ylmethyl)-2-((6-(pyrazin-2-ylmethoxy)-3′,6′-dihydro-[2,4′-bipyridin]-1′(2′H)-yl)methyl)-1H-benzo[d]imidazole-6-carboxylic acid]
≤ 150 nM | O=C(O)c1ccc2nc(CN3CC=C(c4cccc(OCc5cccnc5)n4)CC3)n(C[C@@H]3CCO3)c2c1 [Compound 158]
≤ 15 nM | CC#Cc1ccc(COc2cccc(C3=CCN(Cc4nc5ccc(C(=O)O)cc5n4C[C@@H]4CCO4)CC3)n2)c(F)c1 [Compound 107, (S)-2-((6-((2-fluoro-4-(prop-1-yn-1-yl)benzyl)oxy)-3′,6′-dihydro-[2,4′-pyridin]-1′(2′H)-yl)methyl)-1-(oxetan-2-ylmethyl)-1H-benzo[d]imidazole-6-carboxylic acid]
≤ 15 nM | O=C(O)c1cc2c(cn1)nc(CN1CC=C(c3cccc(OCc4ccc(Cl)cc4F)n3)CC1)n2C[C@@H]1CCO1 [Compound 170, (S)-2-((G-((4-chloro-2-fluorobenzyl)oxy)-3′,6′-dihydro-[2H′-bipyridin]-1 (2′H)-yl)methyl)-1-(oxetan-2-ylmethyl)-1H-imidazo[4,5-c]pyridine-6-carboxylic acid]
≤ 150 nM | O=C(O)c1ccc2nc(CN3CC=C(c4cccc(OCc5cc(Cl)ccc5F)n4)CC3)n(C[C@@H]3CCO3)c2c1 [Compound 140, (S)-2-((6-((5-chloro-2-fluorobenzyl)oxy)-3′,6′-dihydro-[2,4′-bipyridin]-1′(2′H)-yl)methyl)-1-(oxetan-2-ylmethyl)-1H-benzo[d]imidazole-6-carboxylic add]
≤ 150 nM | O=C(O)c1ccc2nc(CN3CC=C(c4cccc(OCc5cc(Cl)cc(Cl)c5)n4)CC3)n(C[C@@H]3CCO3)c2c1 [Compound 139, (S)-2-((6-((3,5-dichlorobenzyl)oxy)-3′,6′-dihydro-[2,4′-bipyridin]-1′(2′H)-yl)methyl)-1-(oxetan-2-ylmethyl)-1H-benzo[d]imidazole-6-carboxylic acid]
≤ 15 nM | O=C(O)c1ccc2nc(CN3CC=C(c4cccc(OCc5ccc(Cl)cc5)n4)CC3)n(C[C@@H]3CCO3)c2c1 [Compound 44, (S)-2-((6-((4-chlorobenzyl)oxy)-3′,6′-dihydro-[2,4′-bipyridin]-1′(2′H)-yl)methyl)-1-(oxetan-2-ylmethyl)-1H-benzo[d]imidazole-6-carboxylic acid]
≤ 1000 nM | O=C(O)c1ccc2nc(CN3CC=C(c4cccc(OCc5cnccc5C(F)(F)F)n4)CC3)n(C[C@@H]3CCO3)c2c1 [Compound 150, (S)-1-(oxetan-2-ylmethyl)-2-((6-((4-(trifluoromethyl)pyridin-3-yl)methoxy)-3′,6′-dihydro-[2,4′-bipyridin]-1′(2′H)-yl)methyl)-1H-benzo[d]imidazole-6-carboxylic add]
≤ 15 nM | O=C(O)c1ccc2nc(CN3CC=C(c4cccc(OCc5ccc6c(c5)OCCO6)n4)CC3)n(C[C@@H]3CCO3)c2c1 [Compound 151, (S)-2-((6-((2,3-dihydrobenzo[b][1,4]dioxin-6-yl)methoxy)-3′,6′-dihydro-[2,4′-bipyridin]-1′(2′H)-yl)methyl)-1-(oxetan-2-ylmethyl)-1H-benzo[d]imidazole-6-carboxylic add]
≤ 15 nM | Cc1ccc(COc2cccc(C3=CCN(Cc4nc5ccc(C(=O)O)cc5n4C[C@@H]4CCO4)CC3)n2)cc1 [Compound 146, (S)-2-((6-((4-methylbenzyl)oxy)-3′,6′-dihydro-[2,4′-bipyridin]-1′(2′H)-yl)methyl)-1-(oxetan-2-ylmethyl)-1H-benzo[d]imidazole-6-carboxylic acid]
≤ 150 nM | Cc1ccc(C2=CCN(Cc3nc4ccc(C(=O)O)cc4n3C[C@@H]3CCO3)CC2)cc1OCc1ccc(Cl)cc1F [Compound 64, (S)-2-((4-(3-((4-chloro-2-fluorobenzyl)oxy)-4-methylphenyl)-3,6-dihydropyridin-1(2H)-yl)methyl)-1-(oxetan-2-ylmethyl)-1H-benzo[d]imidazole-6-carboxylic acid]
≤ 150 nM | Cn1cnc2ccc(COc3cccc(C4=CCN(Cc5nc6ccc(C(=O)O)cc6n5C[C@@H]5CCO5)CC4)n3)cc21 [Compound 241, (S)-2-((6-((1-methyl-1H-benzo[d]imidazol-6-yl)methoxy)-3′,6′-dihydro-[2,4′-bipyridin]-(2′H)-yl)methyl)-1-(oxetan-2-ylmethyl)-1H-benzo[d]imidazole-6-carboxylic add]
≤ 150 nM | CCOc1ccc(COc2cccc(C3=CCN(Cc4nc5ccc(C(=O)O)cc5n4C[C@@H]4CCO4)CC3)n2)cc1OC [Compound 166, (S)-2((6-((4-ethoxy-3-methoxybenzyl)oxy)-3′,6′-dihydro-[2,4′-bipyridin]-1′(2′H)-yl)methyl)-1-(oxetan-2-ylmethyl)-1H-benzo[d]imidazole-6-carboxylic acid]
≤ 15 nM | O=C(NO)c1ccc2nc(CN3CC=C(c4cccc(OCc5ccc(Cl)cc5F)n4)CC3)n(C[C@@H]3CCO3)c2c1 [Compound 174, (S)-2-((6-((4-chloro-2-fluorobenzyl)oxy)-5′,6′-dihydro-[2,4′-bipyridin]-1′(2′H)-yl)methyl)-N-hydroxy-1-(oxetan-2-ylmethyl)-1H-benzo[d]imidazole-6-carboxamide]
